The values below come from PubChem BioAssay (NCI).

Structures are written as SMILES.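 Test compounds were applied to cells in 96-well plates for 48 hours at 5 doses. GI50 = concentration required for 50% inhibition of growth. TGI denotes the concentration required for complete inhibition of growth.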

Test systems include LOX IMVI melanoma; SNB-19 CNS; NCI-H460 lung; HL-60(TB) leukemia; HT29 colon; SK-MEL-5 melanoma; SF-295 CNS; SK-MEL-2 melanoma; HCT-15 colon; HS 578T breast.
Assay in all cases: NCI-60 cell line screen, 48 h

Take `Nc1c(Br)c(=O)[nH]c(=O)n1COCCO`: the TGI in the test on LOX IMVI melanoma, with SNB-19 CNS, in the test with NCI-H460 lung, in the test on HL-60(TB) leukemia, in the test with HT29 colon and with SK-MEL-5 melanoma was more than 100 µM throughout. In the test with SF-295 CNS, this compound gave a TGI of more than 100 µM.

Turning to `O=c1c2cccc3cccc(c4oc5c6cccc7cccc(c(=O)c5c14)c76)c32`, the TGI in the test on LOX IMVI melanoma was 17.2 µM; in the test with SNB-19 CNS it was 18.6 µM; in the test on NCI-H460 lung, 18.1 µM; in the test on SK-MEL-2 melanoma, 23.3 µM; in the test with HL-60(TB) leukemia, 20.7 µM; with HCT-15 colon it was 16.9 µM. Besides, the TGI with HT29 colon is 19.6 µM; in the test on SK-MEL-5 melanoma, 22.2 µM; in the test with SF-295 CNS it was more than 31.6 µM.

In the case of `Nc1ccn(CCO)c(=O)n1`, the TGI with LOX IMVI melanoma, in the test with NCI-H460 lung, with SK-MEL-2 melanoma, in the test with HL-60(TB) leukemia, with HCT-15 colon and with HT29 colon was more than 100 µM throughout. Moreover, the TGI with SK-MEL-5 melanoma and in the test with SF-295 CNS was more than 100 µM throughout.

With `N#Cc1cccc(C(=O)Nc2cccc(NC(=O)c3cccc(C#N)c3)c2)c1`, the GI50 is more than 100 µM with SNB-19 CNS; 42.8 µM with NCI-H460 lung; more than 100 µM in the test with SK-MEL-2 melanoma; 73.9 µM in the test with HCT-15 colon; more than 100 µM in the test with HT29 colon; 39 µM in the test on HS 578T breast. In addition, the GI50 in the test with SK-MEL-5 melanoma was 29.2 µM; with SF-295 CNS it was more than 100 µM. The TGI in the test on SNB-19 CNS, in the test with NCI-H460 lung, in the test on SK-MEL-2 melanoma, in the test on HCT-15 colon, in the test on HT29 colon and in the test with HS 578T breast was more than 100 µM each time. Also, the TGI in the test on SK-MEL-5 melanoma and in the test on SF-295 CNS was more than 100 µM in each case.

For `O=C(/C=C/c1ccc(Cl)c(Cl)c1)c1ccc(F)cc1`, the TGI in the test on SNB-19 CNS is 32.7 µM; in the test on NCI-H460 lung, 54.9 µM; in the test on HL-60(TB) leukemia it was 33.6 µM; with HCT-15 colon, 22.7 µM; with HT29 colon, 27.6 µM; in the test on SK-MEL-5 melanoma, 41 µM. The TGI in the test with SF-295 CNS amounted to 41.6 µM.

As for `COCC1N=C(c2cc(OC)c(OC)c(OC)c2-c2cc3c(cc2C2OCCCO2)OCO3)O[C@H]1c1ccccc1` (stereo not given in full), the TGI in the test with LOX IMVI melanoma, in the test on SNB-19 CNS, in the test with NCI-H460 lung, in the test on SK-MEL-2 melanoma, in the test with HL-60(TB) leukemia and in the test on HCT-15 colon was more than 100 µM in each case. Further, the TGI in the test on HT29 colon, in the test on SK-MEL-5 melanoma and with SF-295 CNS was more than 100 µM in each case.

As to `N#C/C(=C1\NN=C(N)C(c2ccc(Cl)cc2)=C1O)c1ccc(Cl)cc1`, the TGI with LOX IMVI melanoma, with SNB-19 CNS, in the test with NCI-H460 lung, in the test with HL-60(TB) leukemia, with HT29 colon and with SF-295 CNS was more than 100 µM throughout.

On to `C=C1C(=O)OC2C1CC[C@H](C)C13OC(=O)CC1[C@@]23C` (stereo not given in full), for which the TGI in the test with SNB-19 CNS, with NCI-H460 lung, in the test with SK-MEL-2 melanoma, in the test on HL-60(TB) leukemia, in the test with HT29 colon and in the test on SK-MEL-5 melanoma was more than 100 µM throughout. The TGI in the test on SF-295 CNS was more than 100 µM.

In the case of `COc1ccc(C2=NN(C(=O)COc3ccc(Cl)cc3)C(O)(c3ccc(Cl)cc3)C2)cc1` (stereo not given), the TGI in the test on LOX IMVI melanoma, in the test with SNB-19 CNS, in the test on NCI-H460 lung, with SK-MEL-2 melanoma, with HL-60(TB) leukemia and with HCT-15 colon was more than 100 µM each time. For the same compound, the TGI in the test with HT29 colon and in the test on SF-295 CNS was more than 100 µM throughout.

With `NC(=NC1CCCCCCC1)c1ccc(N2CCN(c3ccc(C(N)=NC4CCCCCCC4)cc3)CC2)cc1`, the GI50 was more than 100 µM in the test with LOX IMVI melanoma; 13.5 µM in the test with SNB-19 CNS; 11.9 µM in the test with NCI-H460 lung; 12 µM in the test with SK-MEL-2 melanoma; 16 µM in the test on HL-60(TB) leukemia; 31.8 µM in the test with HCT-15 colon. For the same compound, the GI50 in the test on HT29 colon was 4.88 µM; with SK-MEL-5 melanoma, 1.72 µM; with SF-295 CNS, 2.04 µM. For the same compound, the TGI in the test with LOX IMVI melanoma was more than 100 µM; with SNB-19 CNS it was 27.6 µM; in the test with NCI-H460 lung it was more than 100 µM; in the test on SK-MEL-2 melanoma, more than 100 µM; in the test with HL-60(TB) leukemia, more than 100 µM; in the test with HCT-15 colon it was more than 100 µM. The TGI with HT29 colon came to 23.1 µM; in the test with SK-MEL-5 melanoma, 7.66 µM; in the test on SF-295 CNS it was 6.09 µM.

For the compound `CCOC(=O)C1=C(NNC(=O)Cc2ccccc2)CSC1=Nc1ccccc1`, the TGI with LOX IMVI melanoma, in the test with SNB-19 CNS, with NCI-H460 lung, in the test with SK-MEL-2 melanoma, in the test with HL-60(TB) leukemia and in the test on HCT-15 colon was more than 100 µM in each case. Besides, the TGI in the test with HT29 colon, with SK-MEL-5 melanoma and with SF-295 CNS was more than 100 µM in each case.

For `CCCCCCCCC(=O)N(C)C1C2CN3CCC(O2)C13` (stereo not given), the TGI in the test on LOX IMVI melanoma, in the test on SNB-19 CNS, in the test with NCI-H460 lung, in the test on SK-MEL-2 melanoma, with HL-60(TB) leukemia and in the test on HCT-15 colon was more than 100 µM in each case. The TGI in the test on HT29 colon, in the test on SK-MEL-5 melanoma and in the test with SF-295 CNS was more than 100 µM each time.

Regarding `O=c1c(Sc2c(O)c3ccccc3c3ccccc3c2=O)c(O)c2ccccc2c2ccccc12`, the TGI was 66.5 µM in the test with LOX IMVI melanoma; more than 100 µM with SNB-19 CNS; more than 100 µM in the test with NCI-H460 lung; 68.5 µM in the test with SK-MEL-2 melanoma; 41.8 µM in the test with HL-60(TB) leukemia; more than 100 µM with HCT-15 colon. For the same compound, the TGI with HT29 colon, in the test with SK-MEL-5 melanoma and in the test on SF-295 CNS was more than 100 µM in each case.

Turning to `[C-]#[O+].[C-]#[O+].[C-]#[O+].[C-]#[O+].[Ir].[Ir].[O-]c1ccc2ccccc2c1C=Nc1ccc(N=Cc2c([O-])ccc3ccccc23)cc1`, the GI50 in the test with LOX IMVI melanoma is more than 100 µM; in the test on SNB-19 CNS, 63.6 µM; in the test on NCI-H460 lung, more than 100 µM; in the test on SK-MEL-2 melanoma it was more than 100 µM; in the test on HL-60(TB) leukemia, 75.5 µM; with HCT-15 colon, more than 100 µM. In addition, the GI50 in the test on HT29 colon, with SK-MEL-5 melanoma and in the test with SF-295 CNS was more than 100 µM throughout. The TGI in the test with LOX IMVI melanoma, in the test on SNB-19 CNS, with NCI-H460 lung, in the test with SK-MEL-2 melanoma, in the test with HL-60(TB) leukemia and in the test with HCT-15 colon was more than 100 µM each time. Moreover, the TGI in the test with HT29 colon, with SK-MEL-5 melanoma and in the test on SF-295 CNS was more than 100 µM throughout.
